According to ChEMBL document CHEMBL5050843, “Amide substituted thiazoles as protein secretion inhibitors” (2019):

Legend:
[1] = Inhibition of TNF-alpha-FL-Gluc secretion in doxycyclin-induced human Flp-In-T-REx-293 cells at 2.5 uM measured by Gaussia luciferase reporter gene method relative to control; assay type: functional
[2] = Inhibition of constitutively active VCAMss-Gluc secretion in human Flp-In-T-REx-293 cells at 2.5 uM measured by Gaussia luciferase reporter gene method relative to control; assay type: functional
[3] = Inhibition of constitutively active VCAMss-Gluc secretion in human Flp-In-T-REx-293 cells at 2 uM measured by Gaussia luciferase reporter gene method relative to control; assay type: functional
[4] = Inhibition of constitutively active PR1ss-Gluc secretion in human Flp-In-T-REx-293 cells measured by Gaussia luciferase reporter gene method; assay type: functional, cell-based
[5] = Inhibition of constitutively active VCAMss-Gluc secretion in human Flp-In-T-REx-293 cells measured by Gaussia luciferase reporter gene method; assay type: functional, cell-based
[6] = Inhibition of PD1ss-Gluc secretion in doxycyclin-induced human Flp-In-T-REx-293 cells measured by Gaussia luciferase reporter gene method; assay type: functional, cell-based
[7] = Inhibition of PR1ss-Gluc secretion in doxycyclin-induced human Flp-In-T-REx-293 cells measured by Gaussia luciferase reporter gene method; assay type: functional, cell-based
[8] = Inhibition of VCAMss-Gluc secretion in doxycyclin-induced human Flp-In-T-REx-293 cells measured by Gaussia luciferase reporter gene method; assay type: functional, cell-based
[9] = Inhibition of TNF-alpha-FL-Gluc secretion in doxycyclin-induced human Flp-In-T-REx-293 cells measured by Gaussia luciferase reporter gene method; assay type: functional, cell-based
[10] = Inhibition of VCAMss-Gluc secretion in doxycyclin-induced human HEK293 cells measured by Gaussia luciferase reporter gene method; assay type: functional, cell-based
[11] = Inhibition of VCAM expression in human Flp-In-T-REx-293 cells measured by cellular VCAMss-Gluc assay; assay type: functional, cell-based
[12] = Inhibition of HER3 expression in doxycyclin-induced human HEK293-T-REx cells measured by Gaussia luciferase reporter gene method; assay type: functional, cell-based
[13] = Inhibition of ROS1 expression in doxycyclin-induced human HEK293-T-REx cells measured by Gaussia luciferase reporter gene method; assay type: functional, cell-based
[14] = Inhibition of PD1 expression in doxycyclin-induced human HEK293-T-REx cells measured by Gaussia luciferase reporter gene method; assay type: functional, cell-based
[15] = Inhibition of VCAM expression in doxycyclin-induced human HEK293-T-REx cells measured by Gaussia luciferase reporter gene method; assay type: functional, cell-based
[16] = Inhibition of TLR9 expression in doxycyclin-induced human HEK293-T-REx cells measured by Gaussia luciferase reporter gene method; assay type: functional, cell-based

Row | IC50 [4] | IC50 [5] | IC50 [6] | IC50 [7] | SMILES | inhibition at 2 µM [3] | other results
1 |  |  |  |  | CC(C)(C)c1csc(NC(=O)c2cccs2)n1 |  | inhibition at 2.5 µM [1]: 24%; inhibition at 2.5 µM [2]: 23%
2 |  |  |  |  | CN(C(=O)c1cc2c(s1)CCCC2)c1nc(C(C)(C)C)cs1 | 19% | 
3 |  |  |  |  | Cc1ccc(S(=O)(=O)Nc2nc(C(C)(C)C)cs2)cc1 | 0% | 
4 | > 25 µM | 4.11 µM | 3.87 µM | > 25 µM | CC(C)(C)c1csc(NC(=O)c2cc3cc(-c4ccccc4Cl)ccc3s2)n1 |  | IC50 [8]: 9.53 µM
5 | > 25 µM | 1 µM | 1.75 µM | > 25 µM | CCCC(C)(C)c1csc(NC(=O)Cc2csc3ccc(Cl)cc23)n1 |  | IC50 [8]: 0.744 µM
6 | > 25 µM | 2.11 µM | 12.9 µM | > 25 µM | CC(C)(C)c1csc(NC(=O)Cc2cn(Cc3ccc(F)cc3)c3ccccc23)n1 |  | IC50 [8]: 1.14 µM
7 | > 25 µM | 6.82 µM | 22.2 µM | > 25 µM | Cc1ccc2c(CC(=O)Nc3nc(C(C)(C)C)cs3)csc2c1 |  | IC50 [8]: 5.9 µM
8 | > 25 µM | 1.23 µM | 2.75 µM | > 25 µM | CCC(C)(C)c1csc(NC(=O)Cc2csc3ccc(Cl)cc23)n1 |  | IC50 [8]: 0.826 µM
9 | > 25 µM | 0.506 µM | 4.25 µM | > 25 µM | CC(C)(C)c1csc(NC(=O)Cc2cn(Cc3ccccc3)c3ccc(Cl)cc23)n1 |  | IC50 [9]: 13.1 µM; IC50 [8]: 0.587 µM
10 |  |  |  |  | CC(C)(C)c1csc(NC(=O)N2CCCOCC2)n1 | 0% | 
11 |  |  |  |  | CC(C)(C)c1csc(NC(=O)Nc2nc(C(C)(C)C)cs2)n1 | 19% | 
12 | > 25 µM | 0.915 µM | 5.37 µM | > 25 µM | CC(C)(C)c1csc(NC(=O)Cc2csc3ccc(Cl)cc23)n1 |  | IC50 [9]: > 25 µM; IC50 [8]: 1.11 µM
13 |  |  |  |  | O=C(NC1NC(c2ccccc2)=NS1)N1CCOc2ccc(Cl)cc2C1 (stereo not drawn) |  | IC50 [10]: 22.1 µM
14 | > 25 µM | 12.5 µM | 9.84 µM | > 25 µM | Cc1cc(C(=O)Nc2nc(C(C)(C)C)cs2)cs1 |  | IC50 [9]: > 25 µM; IC50 [8]: 19.1 µM; IC50 [10]: 3.3 µM
15 | > 25 µM | 1.25 µM | 7.82 µM | > 25 µM | CC(C)(C)c1csc(NC(=O)Cc2csc3ccc(C#N)cc23)n1 |  | IC50 [8]: 1.56 µM
16 | > 25 µM | 9.8 µM |  |  | CC(C)(C)c1csc(NC(=O)C2CCCCC2)n1 | 30% | 
17 | > 25 µM | 1.41 µM | 2.76 µM | > 25 µM | CC(C)(C)c1csc(NC(=O)Cc2cn(Cc3ccncc3)c3ccc(Cl)cc23)n1 |  | IC50 [9]: 11 µM
18 |  |  |  |  | CC(C)(C)c1csc(NC(=O)c2ccc(-c3cccc([N+](=O)[O-])c3)s2)n1 | 59% | 
19 | > 25 µM | 0.109 µM | 2.2 µM | > 25 µM | CCC(C)(C)c1csc(NC(=O)Cc2cn(Cc3ccccc3)c3ccc(Cl)cc23)n1 |  | IC50 [9]: 9.8 µM
20 |  |  |  |  | CC(C)(C)c1csc(NC(=O)c2cc3c(s2)CCNC3)n1 |  | inhibition at 2.5 µM [1]: 0%; inhibition at 2.5 µM [2]: 0%
21 |  |  |  |  | CN(C)CC#Cc1ccc(C(=O)Nc2nc(C(C)(C)C)cs2)s1 | 76% | 
22 |  |  |  |  | CC(C)(C)C(=O)Nc1nc(C(C)(C)C)cs1 | 0% | 
23 |  |  | > 25 µM | > 25 µM | CC(C)(C)c1csc(NC(=O)C(Cc2ccccc2)c2cn(Cc3ccccc3)c3ccc(Cl)cc23)n1 (stereo not drawn) |  | IC50 [11]: > 25 µM; IC50 [9]: > 25 µM
24 |  |  |  |  | Cc1ccc(C(=O)Nc2nc(C(C)(C)C)cs2)cc1 | 9% | 
25 |  |  |  |  | CC(C)(C)c1csc(NC(=O)c2ccc(C#CCCCCCCCCO)s2)n1 | 52% | 
26 |  |  |  |  | Cn1c(C(C)(C)C)cs/c1=N\C(=O)c1cc2c(s1)CCCC2 | 63% | 

Row | IC50 [4] | IC50 [5] | IC50 [6] | IC50 [7] | SMILES | inhibition at 2 µM [3] | other results
27 |  |  |  |  | CC(C)(C)c1csc(NC(=O)c2ccc(-c3cc(Cl)cc(Cl)c3)s2)n1 | 35% | 
28 | > 25 µM |  |  |  | CC(C)(C)c1csc(NC(=O)c2ccc(Cl)cc2)n1 |  | inhibition at 2.5 µM [1]: 0%; inhibition at 2.5 µM [2]: 66%
29 |  |  |  |  | CC(C)(C)c1csc(NC(=O)c2ccc(C#CCN3CCOCC3)s2)n1 | 38% | 
30 |  |  | 0.968 µM | > 25 µM | CCOC(C)(C)c1csc(NC(=O)Cc2cn(Cc3ccccc3Cl)c3ccc(Cl)cc23)n1 |  | IC50 [12]: < 5 µM; IC50 [13]: < 5 µM; IC50 [11]: 1 µM; IC50 [14]: < 5 µM; IC50 [9]: 24.4 µM; IC50 [15]: < 5 µM; IC50 [16]: < 5 µM
31 | > 25 µM | 1.63 µM | 8.27 µM | > 25 µM | Cc1ccc2scc(CC(=O)Nc3nc(C(C)(C)C)cs3)c2c1 |  | IC50 [8]: 2.24 µM
32 | > 25 µM | 10.1 µM |  |  | CC(C)(C)c1csc(NC(=O)N2CCOc3ccccc3C2)n1 | 24% | 
33 |  |  |  |  | CC(C)(C)c1csc(NC(=O)c2cc3c(s2)CCN(Cc2ccccc2)C3)n1 |  | inhibition at 2.5 µM [1]: 22%; inhibition at 2.5 µM [2]: 33%
34 |  |  |  |  | C#Cc1ccc(C(=O)Nc2nc(C(C)(C)C)cs2)s1 | 66% | 
35 |  |  |  |  | CC(C)(C)c1csc(NC(=O)c2ccc(CCCO)s2)n1 | 31% | 
36 |  |  |  |  | CC(O)CCc1ccc(C(=O)Nc2nc(C(C)(C)C)cs2)s1 (stereo not drawn) | 30% | 
37 | > 25 µM | 5.35 µM | 4.44 µM | > 25 µM | CC(C)(C)c1csc(NC(=O)c2cc3c(s2)CCCC3)n1 |  | IC50 [9]: 22.7 µM
38 |  |  |  |  | O=C(Nc1nc(-c2ccc(C(F)(F)F)cc2)cs1)c1cc2c(s1)CCCC2 | 3% | 
39 | > 25 µM | 2.42 µM | 20.4 µM | > 25 µM | Cc1cccc2c(CC(=O)Nc3nc(C(C)(C)C)cs3)csc12 |  | IC50 [8]: 3.56 µM
40 |  |  |  |  | COc1ccc2[nH]c(-c3ccc(C(=O)Nc4nc(C(C)(C)C)cs4)s3)cc2c1 |  | inhibition at 2.5 µM [1]: 27%; inhibition at 2.5 µM [2]: 42%
41 | > 25 µM | 0.147 µM | 1.15 µM | > 25 µM | CC(C)(C)c1csc(NC(=O)Cc2cn(Cc3ccccc3Cl)c3ccc(Cl)cc23)n1 |  | IC50 [9]: > 25 µM
42 |  |  |  |  | CC(C)(C)c1csc(NC(=O)c2ccc(-c3cccnc3)s2)n1 | 19% | 
43 |  |  |  |  | COc1ccc2c(c1)cc(-c1ccc(C(=O)Nc3nc(C(C)(C)C)cs3)s1)n2C(=O)OC(C)(C)C |  | inhibition at 2.5 µM [1]: 0%; inhibition at 2.5 µM [2]: 56%
44 |  |  |  |  | CC(C)(C)c1csc(NC(=O)c2ccc(C#CCCCN3CCOCC3)s2)n1 | 45% | 
45 | > 25 µM | > 25 µM | > 25 µM | > 25 µM | CC(C)(C)c1csc(NC(=O)c2cc3cc(C#N)ccc3s2)n1 |  | IC50 [8]: > 25 µM
46 |  |  |  |  | CC(O)C#Cc1ccc(C(=O)Nc2nc(C(C)(C)C)cs2)s1 (stereo not drawn) | 24% | 
47 |  |  |  |  | CC(C)(C)c1csc(NC(=O)c2ccc(C#CCCCO)s2)n1 | 53% | 
48 |  |  |  |  | CC(C)(C)c1csc(NC(=O)c2ccc(C#C[Si](C)(C)C)s2)n1 | 54% | 
49 | > 25 µM | 10.9 µM |  |  | CC(C)(C)c1csc(NC(=O)c2ccc3c(c2)CCCC3)n1 | 20% | 
50 |  |  |  |  | CC(C)(C)c1csc(NC(=O)c2ccc(C#CCO)s2)n1 | 80% | 
51 |  |  |  |  | O=C(Nc1nc(C2CC3CCC(C3)C2)cs1)c1cc2c(s1)CCCC2 (stereo not drawn) | 55% | 
